The values that follow come from US5502166A, “NMDH receptor proteins and genes encoding the same” (Mitsubishi Chemical Corporation, priority 1992, dated 1996).

The subject of test [1] is ε1/.xi.1, ε2/.xi.1, ε3/.xi.1 and ε4/.xi.1 heteromeric NMDA receptor channels. Description: Comparison of ε1/, ε2/, ε3/ and ε4/.xi.1 heteromeric channels in Xenopus oocytes. The format is cell-based, mouse.
Protocol: (§6) The oocytes used were obtained from mature female Xenopus and separated into one oocyte in a Barth medium by using sharp tweezers and scissors. The concentration of the mRNAs was 0.1 μg/μl and 10 μl thereof was injected into about 100 oocytes in an amount of 50 to 100 nl per one oocyte. The mRNAs were injected under a microscope by using a capillary and a micromanipulator. After the injection, the oocytes were incubated at 19° C. for one day in a Barth medium containing 0.1 mg/ml of gentamicin ("The Control of Gene Expression in Animal Development, Clarendon, Oxford (1974)). Then, the oocytes were allowed to stand in 1 mg/ml of collagenase at room temperature for 1 hour, and then extracellular skins were removed under a microscope by using sharp tweezers. These oocytes were returned to the Barth medium containing 0.1 mg/ml of gentamicin, incubated again at 19° C. for one day and then used for an electrophysiological test.
(§7) The electrophysiological test was carried out by a conventional micropipet voltage clamp method. […] In the present experiment system, flow of these ions were detected, and opening and closing of the ion channel were observed. […]
In test [2] the target is ε3/.zeta.1 heteromeric NMDA receptor channel (Mus musculus, UniProt P35438+Q01098). As to the kind of experiment: Electrophysiological test in Xenopus oocytes expressing ε3 and .zeta.1 subunits. Type of test: cell-based. Conditions: for response to kainate / AMPA: 100 μM. Here is the method: (§1) Then, by using the pBKSA ε2 cut by NotI and the pBKSA ε3 cut by XbaI as molds and using T3 RNA polymerase produced by BRL Co., ε2-specific mRNAs and ε3-specific mRNAs were synthesized in vitro. Transcription was carried out in the same manner as in Example 1.
(§2) Effects of the competitive antagonist were examined with 10-fold concentration of the antagonist concentration used when examining the EC50 values.

The subject of test [3] is ε1/.xi.1, ε2/.xi.1 and ε3/.xi.1 heteromeric NMDA receptor channels. Description: Comparison of ε1/, ε2/ and ε3/.xi.1 heteromeric channels in Xenopus oocytes. Type of test: cell-based, mouse. Conditions: 10-fold concentration used when examining EC50.
From the text: as §2

Test [4] concerns the target T1, ε2/.zeta.1 heteromeric NMDA receptor channel (Mus musculus, UniProt P35438+Q01097).
T1 construct: expressed in transfected cells; host or cells: Xenopus oocytes injected with in vitro transcribed mRNAs
As to the kind of experiment: Electrophysiological test in Xenopus oocytes expressing ε2 and .zeta.1 subunits. Type of test: cell-based. Conditions: for response to kainate / AMPA: 100 μM. Here is the method:
as §1, §2
Transcription was carried out in the same manner as in Example 1.

Test [5] addresses ε4/.zeta.1 heteromeric NMDA receptor channel (Mus musculus, UniProt P35438+Q03391). As to the kind of experiment: Electrophysiological test in Xenopus oocytes expressing ε4 and .zeta.1 subunits. The format is cell-based. Here is the method:
FIGS. 1(a) and 1(b) show functional expression of ε4/.zeta.1 heteromeric NMDA receptor channel cDNAs in frog oocytes. Current responses are measured at -70 mV membrane potential in normal Ringer's solution. […] FIG. 1(b) represent effects of 500 μM D-2-amino-5-phosphonovalerate (APV) (Glu/Gly +APV) and 100 μM 7-chlorokynurenate (7 CK) (Glu/Gly +7 CK) on a current response of the ε4/.zeta.1 heteromeric channel to Glu/Gly, respectively.
Current responses are measured at -70 mV membrane potential in a Ba^2+ -Ringer's solution.
Then, by using the pSPGR ε4 plasmid cut by EcoRI as a template and using SP6 RNA polymerase, ε4-specific mRNAs were synthesized in vitro. Transcription was carried out in the same manner as in Example 1.

The test system of test [6] is ε2-N589Q/.zeta.1 NMDA receptor channel. Description: Electrophysiological test in Xenopus oocytes expressing modified ε2-N589Q/.zeta.1 channel. The format is cell-based, mouse. From the text:
(§3) In the figures, FIGS. 4(a), 4(b), 4(c) and 4(d) represent an ε2/.zeta.1 NMDA receptor channel, an ε2/.zeta.1-N598Q (a modified glutamate receptor shown in Sequence ID No. 9 of the sequence table) NMDA receptor channel, an ε2-N589Q (a modified glutamate receptor shown in Sequence ID No. 8 of the sequence table)/.zeta.l NMDA receptor channel and an ε2-N589Q/.zeta.1-N598Q NMDA receptor channel, respectively.
(§4) FIGS. 5(a) to 5(d) show current-voltage relationships of wild type and mutant heteromeric channels in the presence of 1 mM Mg^2+ ( ) and in the absence thereof (.smallcircle.). In the figures, FIGS. 5(a) , 5(b) , 5(c) and 5(d) represent an ε2/.zeta.1 NMDA receptor channel, an ε2/.zeta.1-N598Q NMDA receptor channel, an ε2-N589Q/.zeta.1 NMDA receptor channel and an ε2-N589Q/.zeta.1-N598Q NMDA receptor channel, respectively.
(§5) In the figure, .largecircle., , , .quadrature. and represent an ε2/.zeta.1 NMDA receptor channel, an ε2/.zeta.1-N598Q NMDA receptor channel, an ε2-N589Q/.zeta.1 NMDA receptor channel, an ε2-N589Q/.zeta.1-N598Q NMDA receptor channel and an ε2/.zeta.1-ZAZ (a mutant glutamate receptor shown in Sequence ID No. 10 of the sequence table) NMDA receptor channel, respectively. […]

Test [7] relates to ε2-N589Q/.zeta.1-N598Q NMDA receptor channel. Description: Electrophysiological test in Xenopus oocytes expressing modified ε2-N589Q/.zeta.1-N598Q channel. Type of test: cell-based, mouse.
From the text: as §3, §4, §5

For test [8], the system named is ε2/.zeta.1-N598Q NMDA receptor channel. As to the kind of experiment: Electrophysiological test in Xenopus oocytes expressing modified ε2/.zeta.1-N598Q channel. Type of test: cell-based, mouse.
From the text: as §3, §4, §5

In test [9] the target is T2, ε1/.zeta.1 heteromeric NMDA receptor channel (Mus musculus, UniProt P35436+P35438).
T2 construct: expressed in transfected cells; host or cells: Xenopus oocytes injected with in vitro transcribed mRNAs
As to the kind of experiment: Electrophysiological test (micropipet voltage clamp) in Xenopus oocytes expressing ε1 and .zeta.1 subunits. The format is cell-based.
From the text: as §2

A further test concerns ε3 subunit. As to the kind of experiment: Electrophysiological test in Xenopus oocytes expressing only the ε3 subunit. The format is cell-based, mouse. Conditions: ε3 mRNA alone.
In another test the test system is ε2 subunit. Description: Electrophysiological test in Xenopus oocytes expressing only the ε2 subunit. Type of test: cell-based, mouse. As to conditions: ε2 mRNA alone.
The target of test [10] is .zeta.1 NMDA type receptor subunit (Mus musculus, UniProt P35438). As to the kind of experiment: Electrophysiological test in Xenopus oocytes expressing only the .zeta.1 subunit. Conditions: 100 μM NMDA and 10 μM glycine, n=7.
Protocol: Then, by using the pBKSA ε1 cut by NotI as a template and using T3 RNA polymerase produced by BRL Co., ε1-specific mRNAs were synthesized in vitro. Transcription was carried out in a solution containing ATP, TTP and CTP at a concentration of 0.5 mM, respectively and 0.1 mM GTP in the presence of 0.5 mM dinucleotide 7mGpppG having a cap structure (in which 2 Gs were linked at 5' and 7-site of one guanine was methylated, produced by P-L Biochemicals Co.). One or both of ε1 subunit-specific mRNAs and .zeta.1.NMDA type glutamate receptor subunit-specific mRNAs (mRNAs derived from mice, coding an amino acid sequence different in the 213rd (Glu→Asp) and the 460th (Ile→Val) from the N terminal end from the amino acid sequence which is coded by cDNA.-NMDA R1 of a rat-NMDA type glutamate receptor cloned by Nakanishi et al. ("Nature", 354, pp. 31 to 37 (1991))) were injected into Xenopus oocytes.
as §6
The electrophysiological test was carried out by a conventional micropipet voltage clamp method. […] First, while a frog standard Ringer's solution (115 mM NaCl, 2.5 mM KCl, 1.8 mM CaCl2 and 10 mM HEPES-NaOH (pH: 7.2)) was flown in a chamber, 2 glass microelectrodes charged with 3M KCl were stuck in the oocytes, and the membrane potential was fixed to -70 mV. In these oocytes, an agonist (NMDA) is linked to a glutamate receptor expressed on a cell membrane and an ion channel is opened, the oocytes have an action of returning membrane potential to an original value, whereby inflow and outflow of ions are caused. In the present experiment system, flow of these ions were detected, and opening and closing of the ion channel were observed.
The ε1 subunit-specific mRNAs synthesized from the cloned cDNAs in vitro were injected into the Xenopus oocytes. […]
The subject of the next test is ε1 subunit. As to the kind of experiment: Electrophysiological test in Xenopus oocytes expressing only the ε1 subunit. The format is cell-based, mouse. Conditions: 10 μM L-glutamate and 100 μM NMDA, even in the presence of 10 μM glycine.
[11] abbreviates: (+)-MK-801, continuous application.
The mark [12] stands for this setting: Ba^2+ Ringer's solution, dose-reaction curve.

SMILES strings stand for the structures. Where two headings read alike, the source gives them in different places.

ε3/.zeta.1 heteromeric NMDA receptor channel, sequence (Q01098 20-1239, other chains not shown): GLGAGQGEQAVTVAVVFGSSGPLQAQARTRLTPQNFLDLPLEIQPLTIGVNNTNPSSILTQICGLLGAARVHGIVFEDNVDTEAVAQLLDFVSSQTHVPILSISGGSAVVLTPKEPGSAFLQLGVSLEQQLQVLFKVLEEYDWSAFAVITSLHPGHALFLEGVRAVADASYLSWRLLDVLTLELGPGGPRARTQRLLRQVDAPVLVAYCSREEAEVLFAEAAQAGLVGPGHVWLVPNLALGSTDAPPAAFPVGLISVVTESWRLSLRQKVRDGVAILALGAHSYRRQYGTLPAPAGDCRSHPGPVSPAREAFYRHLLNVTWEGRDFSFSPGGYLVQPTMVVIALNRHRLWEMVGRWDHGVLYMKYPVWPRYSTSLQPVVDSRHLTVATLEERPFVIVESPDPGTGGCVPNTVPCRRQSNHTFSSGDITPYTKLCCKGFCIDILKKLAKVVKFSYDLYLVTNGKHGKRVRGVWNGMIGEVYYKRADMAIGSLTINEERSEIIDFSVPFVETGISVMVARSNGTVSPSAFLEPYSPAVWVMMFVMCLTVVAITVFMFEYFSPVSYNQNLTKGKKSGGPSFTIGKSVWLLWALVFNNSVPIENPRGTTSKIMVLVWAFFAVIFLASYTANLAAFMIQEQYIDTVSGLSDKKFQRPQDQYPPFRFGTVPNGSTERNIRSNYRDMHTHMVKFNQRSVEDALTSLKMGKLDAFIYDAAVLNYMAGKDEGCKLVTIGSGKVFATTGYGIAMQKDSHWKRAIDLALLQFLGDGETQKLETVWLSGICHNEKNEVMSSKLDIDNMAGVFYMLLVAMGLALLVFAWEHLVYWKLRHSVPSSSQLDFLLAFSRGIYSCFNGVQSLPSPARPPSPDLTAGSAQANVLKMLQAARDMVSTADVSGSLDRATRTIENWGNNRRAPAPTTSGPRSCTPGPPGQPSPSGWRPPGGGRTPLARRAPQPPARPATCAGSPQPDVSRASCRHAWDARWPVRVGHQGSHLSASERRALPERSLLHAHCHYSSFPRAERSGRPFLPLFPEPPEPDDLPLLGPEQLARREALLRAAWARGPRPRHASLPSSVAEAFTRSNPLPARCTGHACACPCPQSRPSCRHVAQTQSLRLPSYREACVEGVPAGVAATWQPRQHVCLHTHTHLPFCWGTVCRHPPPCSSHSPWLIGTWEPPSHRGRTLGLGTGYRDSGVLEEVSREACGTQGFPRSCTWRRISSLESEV
T2 sequence (P35436 23-1464 S384R, other chains not shown): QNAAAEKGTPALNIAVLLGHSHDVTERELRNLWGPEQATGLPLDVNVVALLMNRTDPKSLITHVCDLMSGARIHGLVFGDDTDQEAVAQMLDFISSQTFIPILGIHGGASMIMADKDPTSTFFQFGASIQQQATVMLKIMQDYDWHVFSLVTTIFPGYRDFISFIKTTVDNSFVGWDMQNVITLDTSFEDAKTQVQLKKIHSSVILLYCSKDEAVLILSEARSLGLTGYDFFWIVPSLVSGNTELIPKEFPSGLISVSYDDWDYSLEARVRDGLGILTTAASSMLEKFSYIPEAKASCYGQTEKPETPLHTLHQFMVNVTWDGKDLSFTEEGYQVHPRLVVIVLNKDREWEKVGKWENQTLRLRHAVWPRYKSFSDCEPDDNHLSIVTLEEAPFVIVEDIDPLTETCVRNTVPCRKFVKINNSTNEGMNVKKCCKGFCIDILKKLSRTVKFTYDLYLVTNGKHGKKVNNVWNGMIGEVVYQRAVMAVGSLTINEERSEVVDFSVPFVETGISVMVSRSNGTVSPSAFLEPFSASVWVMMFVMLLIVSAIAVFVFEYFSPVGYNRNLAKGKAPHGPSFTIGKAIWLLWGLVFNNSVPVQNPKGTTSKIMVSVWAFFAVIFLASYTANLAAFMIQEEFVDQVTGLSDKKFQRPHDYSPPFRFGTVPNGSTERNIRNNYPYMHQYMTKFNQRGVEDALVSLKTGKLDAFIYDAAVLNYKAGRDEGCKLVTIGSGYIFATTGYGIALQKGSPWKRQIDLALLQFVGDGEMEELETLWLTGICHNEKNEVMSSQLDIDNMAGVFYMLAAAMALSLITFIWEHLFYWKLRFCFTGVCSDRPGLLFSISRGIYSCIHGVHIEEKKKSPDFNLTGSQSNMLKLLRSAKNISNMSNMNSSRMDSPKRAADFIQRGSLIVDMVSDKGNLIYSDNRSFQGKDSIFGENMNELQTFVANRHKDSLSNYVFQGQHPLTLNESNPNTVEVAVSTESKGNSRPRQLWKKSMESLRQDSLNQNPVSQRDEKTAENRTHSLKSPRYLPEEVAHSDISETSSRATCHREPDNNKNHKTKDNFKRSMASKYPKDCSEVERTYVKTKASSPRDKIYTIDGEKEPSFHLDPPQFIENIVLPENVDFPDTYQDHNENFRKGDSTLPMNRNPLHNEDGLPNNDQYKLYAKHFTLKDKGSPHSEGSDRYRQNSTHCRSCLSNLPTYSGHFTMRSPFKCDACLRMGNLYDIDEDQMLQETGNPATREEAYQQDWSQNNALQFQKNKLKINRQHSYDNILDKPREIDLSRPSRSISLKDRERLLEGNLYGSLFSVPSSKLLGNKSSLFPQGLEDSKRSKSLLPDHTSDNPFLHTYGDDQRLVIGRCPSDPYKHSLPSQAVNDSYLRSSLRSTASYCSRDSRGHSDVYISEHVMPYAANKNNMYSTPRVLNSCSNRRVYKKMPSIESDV
ε4/.zeta.1 heteromeric NMDA receptor channel, sequence (Q03391 28-1323, other chains not shown): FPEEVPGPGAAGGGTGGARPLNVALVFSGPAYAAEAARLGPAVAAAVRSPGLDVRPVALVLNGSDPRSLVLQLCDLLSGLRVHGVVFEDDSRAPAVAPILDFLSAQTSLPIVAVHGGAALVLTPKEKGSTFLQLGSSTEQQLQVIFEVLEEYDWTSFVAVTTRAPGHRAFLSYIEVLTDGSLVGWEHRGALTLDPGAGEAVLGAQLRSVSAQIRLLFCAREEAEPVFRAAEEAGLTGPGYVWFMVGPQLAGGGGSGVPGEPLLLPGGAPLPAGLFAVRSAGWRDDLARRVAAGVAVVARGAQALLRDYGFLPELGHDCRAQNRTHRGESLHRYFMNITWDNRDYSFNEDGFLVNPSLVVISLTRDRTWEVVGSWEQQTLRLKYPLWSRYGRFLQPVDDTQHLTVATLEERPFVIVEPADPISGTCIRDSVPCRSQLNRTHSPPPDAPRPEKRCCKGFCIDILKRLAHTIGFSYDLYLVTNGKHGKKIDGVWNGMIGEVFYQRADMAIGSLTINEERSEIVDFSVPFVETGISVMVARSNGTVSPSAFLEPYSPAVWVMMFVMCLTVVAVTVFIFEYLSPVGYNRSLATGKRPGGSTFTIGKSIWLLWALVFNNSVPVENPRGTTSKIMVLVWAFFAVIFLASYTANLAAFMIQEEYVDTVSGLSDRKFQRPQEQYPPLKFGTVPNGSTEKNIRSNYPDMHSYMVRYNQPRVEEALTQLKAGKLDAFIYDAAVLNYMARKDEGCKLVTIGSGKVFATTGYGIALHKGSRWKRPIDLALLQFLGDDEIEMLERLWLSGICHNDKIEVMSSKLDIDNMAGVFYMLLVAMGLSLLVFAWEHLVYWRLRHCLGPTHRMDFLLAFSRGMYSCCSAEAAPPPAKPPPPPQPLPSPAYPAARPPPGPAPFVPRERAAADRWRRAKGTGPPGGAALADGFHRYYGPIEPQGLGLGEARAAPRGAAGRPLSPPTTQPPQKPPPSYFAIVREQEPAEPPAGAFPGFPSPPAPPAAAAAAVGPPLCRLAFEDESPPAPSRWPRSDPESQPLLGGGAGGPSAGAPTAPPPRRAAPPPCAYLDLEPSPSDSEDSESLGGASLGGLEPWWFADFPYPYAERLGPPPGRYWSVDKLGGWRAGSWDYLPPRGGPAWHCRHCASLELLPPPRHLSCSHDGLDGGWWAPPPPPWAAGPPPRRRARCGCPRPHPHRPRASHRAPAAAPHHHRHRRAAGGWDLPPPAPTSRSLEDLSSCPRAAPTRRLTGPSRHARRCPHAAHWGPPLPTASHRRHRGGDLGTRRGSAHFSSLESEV
Protocol for ε1 subunit: One or both of ε1 subunit-specific mRNAs and .zeta.1.NMDA type glutamate receptor subunit-specific mRNAs (mRNAs derived from mice, coding an amino acid sequence different in the 213rd (Glu→Asp) and the 460th (Ile→Val) from the N terminal end from the amino acid sequence which is coded by cDNA.-NMDA R1 of a rat-NMDA type glutamate receptor cloned by Nakanishi et al. ("Nature", 354, pp. 31 to 37 (1991))) were injected into Xenopus oocytes.
The oocytes used were obtained from mature female Xenopus and separated into one oocyte in a Barth medium by using sharp tweezers and scissors. The concentration of the mRNAs was 0.1 μg/μl and 10 μl thereof was injected into about 100 oocytes in an amount of 50 to 100 nl per one oocyte. The mRNAs were injected under a microscope by using a capillary and a micromanipulator. After the injection, the oocytes were incubated at 19° C. for one day in a Barth medium containing 0.1 mg/ml of gentamicin ("The Control of Gene Expression in Animal Development, Clarendon, Oxford (1974)). […]
as §7
Protocol for ε2 subunit: as §6
(§8) The electrophysiological test was carried out by a conventional micropipet voltage clamp method. Oocytes generally have a membrane potential of about -30 to -40 mV. […] In the present experiment system, flow of these ions were detected, and opening and closing of the ion channel were observed. […]
Protocol for ε3 subunit: as §6, §8

On to `O=C(O)c1cc(O)c2ccc(Cl)cc2n1` [7 CK, 7-chlorokynurenate], for which, in test [1] (10-fold concentration of EC50 value), the “order of sensitivity to competitive antagonist” value is “ε3/.xi.1>ε2/.xi.1>ε1/.xi.1=ε4/.xi.1”. Also, the “effect on response to 10 μM L-glutamate or 10 μM glycine alone” value in test [2] (100 μM APV, 30 μM 7 CK) is “disappeared”; in test [4] it was “disappeared”. Besides, the “effect on response to 10 μM L-glutamate and 10 μM glycine” value in [2] (competitive antagonists, 100 μM Mg^2+, 100 μM Zn^2+, 1 μM (+)-MK-801) is “suppressed”; in test [4], “suppressed”; in test [5] (500 μM APV or 100 μM 7 CK), “suppressed”. The “order of strength in sensitivity to competitive antagonist” value in test [3] was “ε3/.xi.1>ε2/.xi.1>ε1/.xi.1”. Further, the “decrease of channel activity” value in [5] (100 μM APV or 3 μM 7 CK, response to 4.7 μM L-glutamate + 0.9 μM glycine, Ba^2+ Ringer's solution, -70 mV) was 34%. Moreover, the degree of inhibition entry in test [5] (compared with other ε/.xi. channels under the same conditions) is given as “smaller than those of the other ε/.xi. channels”.

With `C[C@]12N[C@H](Cc3ccccc31)c1ccccc12` [(+)-MK-801], the “suppression after repetitive application” value is listed as “strongly inhibited” in test [6] (setting [11]), “retained high activities” in test [7] ((+)-MK-801 applied three times repeatedly), “strongly inhibited” in [8] (setting [11]) and “suppressed almost completely” in test [4]. Besides, the “sensitivity to inhibition / current response” value in test [6] (Mg^2+, Zn^2+, repetitive (+)-MK-801, frog standard Ringer's, -70 mV, 10 μM L-glutamate + 10 μM glycine) is reported as “showed a great current response after repetitive application of (+)-MK-801”. In addition, the “resistance / sensitivity to inhibition” value in [7] (Mg^2+, Zn^2+, (+)-MK-801, frog standard Ringer's, -70 mV, 10 μM L-glutamate + 10 μM glycine) was “strong resistance”. The “effect on response to 10 μM L-glutamate and 10 μM glycine” value in [2] and in [4] was “suppressed” throughout. Further, the “inhibition of current response” value in [8] (1 mM Mg^2+, 100 μM Zn^2+, 1 μM (+)-MK-801, frog standard Ringer's, -70 mV, 10 μM L-glutamate + 10 μM glycine) is “suppressed effectively”; in test [4], “strongly inhibited”.

As for `Cc1onc(O)c1CC(N)C(=O)O` (centres unmarked) [AMPA], the “response to kainate / AMPA” value in test [2] and in test [4] was “less than the measurement limit” each time.

Regarding `N[C@@H](CC(=O)O)C(=O)O` [L-aspartic acid], in test [4], the “response to agonist alone” value is listed as “showed a response”.

As a reminder, the EC50 is the concentration needed to bring the measured effect to its halfway point. Take `N[C@@H](CCC(=O)O)C(=O)O` [L-glutamate]: in [9], a half-maximal effect (EC50) was put at 1700 nM. The “response of oocytes injected singly” value in the test on ε3 subunit and in the test with ε2 subunit was < 1 nA throughout.

Turning to `CN[C@H](CC(=O)O)C(=O)O` [NMDA, N-methyl-D-aspartic acid], the inward current is listed as 89±22 nA in test [2]; 175±30 nA in test [9] (100 μM NMDA and 10 μM glycine, frog standard Ringer's solution, -70 mV, n=7); 546±172 nA in test [4]; 68±13 nA in [5] (100 μM NMDA and 10 μM glycine, frog standard Ringer's solution, -70 mV, n=8). The current amplitude is 57±3 nA in [9] (100 μM NMDA and 10 μM glycine, Ba^2+ Ringer's solution, n=7); 1±0.2 nA in [10] (Ba^2+ Ringer's solution); 6±1 nA in test [10] (Example 1, frog standard Ringer's solution, -70 mV); 9±2 nA in [10] (Example 2); 13±2 nA in test [10] (Example 3). Moreover, the “reaction of injected oocytes” value with ε1 subunit was “did not show any reaction”. Also, the “response of oocytes injected singly” value in the test on ε3 subunit and with ε2 subunit was < 1 nA in each case.

Usually Hill coefficient stands for a measure of the steepness of the concentration-response curve. Turning to `NCC(=O)O` [glycine], the “order of strength in affinity to agonist” value in test [1] (Ba^2+ Ringer's solution) is listed as “ε4/.xi.1>ε3/.xi.1>ε2/.xi.1”. Also, the “response to agonist alone” value in test [2] was “showed a response only to 10 μM glycine”; in test [4] it was “showed a response”. The EC50 in test [2] (setting [12]) turned out to be 200 nM; in test [9] (Ba^2+ Ringer's solution, dose-reaction curve, read-out: EC50) it was 2100 nM; in test [4] (setting [12]) it was 300 nM; in [5] it was 90 nM. In addition, the Hill coefficient in test [5] (Ba^2+ Ringer's solution, -70 mV) is 1.2.

With `C=C(C)[C@H]1CN[C@H](C(=O)O)[C@H]1CC(=O)O` [kainate], the “response to kainate / AMPA” value in test [2] and in test [4] was “less than the measurement limit” in each case.
